One assay deals with T1, Tyk2 (Homo sapiens, UniProt P29597).
T1 construct: purchased Invitrogen
In words: Tyk2 enzyme inhibition test (LANCE method). In kind it is biochemical. Conditions: for inhibition at 1 µM: test compound 1 μM, read-out: Inhibitory rate (%) Tyk2 1 μM; for inhibition at 10 µM: test compound 10 μM, read-out: Inhibitory rate (%) Tyk2 10 μM. The essentials: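 LANCE TR-FRET read-out (ex 340/em 665 nm, 100 μs delay) of ULight-JAK1 phosphorylation, with no-enzyme wells as 100% inhibition. Reaction run 1 h at room temperature in pH 7.5 HEPES buffer; enzyme 375 ng/mL, substrate 300 nM and ATP 30 μM are solution concentrations before mixing.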

The target in the next assay is T2, JAK1 (Homo sapiens, UniProt P23458).
T2 construct: purchased Invitrogen
The assay can be described thus: JAK1 enzyme inhibition test (LANCE method). It counts as biochemical. Conditions: for inhibition at 1 µM: test compound 1 μM, read-out: Inhibitory rate (%) JAK1 1 μM; for inhibition at 10 µM: read-out: Inhibitory rate (%) JAK1 10 μM. The essentials: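 Reactions ran 1 h at room temperature in HEPES pH 7.5/MgCl2 buffer, with ATP solution at 150 μM and JAK1 and ULight peptide solutions at 187.5 ng/mL and 300 nM. Reactions were stopped with EDTA, and phosphorylation was read by Eu antibody time-resolved fluorescence at 665 nm. Inhibition was scaled to a no-enzyme control as 100%.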

The mark [1] stands for this setting: test compound 10 μM (Ex. 182-220), beside Tyk2 1 μM.

The structures appear in SMILES notation. Where two headings read alike, the source gives them in different places.

T1 sequence (P29597 whole entry): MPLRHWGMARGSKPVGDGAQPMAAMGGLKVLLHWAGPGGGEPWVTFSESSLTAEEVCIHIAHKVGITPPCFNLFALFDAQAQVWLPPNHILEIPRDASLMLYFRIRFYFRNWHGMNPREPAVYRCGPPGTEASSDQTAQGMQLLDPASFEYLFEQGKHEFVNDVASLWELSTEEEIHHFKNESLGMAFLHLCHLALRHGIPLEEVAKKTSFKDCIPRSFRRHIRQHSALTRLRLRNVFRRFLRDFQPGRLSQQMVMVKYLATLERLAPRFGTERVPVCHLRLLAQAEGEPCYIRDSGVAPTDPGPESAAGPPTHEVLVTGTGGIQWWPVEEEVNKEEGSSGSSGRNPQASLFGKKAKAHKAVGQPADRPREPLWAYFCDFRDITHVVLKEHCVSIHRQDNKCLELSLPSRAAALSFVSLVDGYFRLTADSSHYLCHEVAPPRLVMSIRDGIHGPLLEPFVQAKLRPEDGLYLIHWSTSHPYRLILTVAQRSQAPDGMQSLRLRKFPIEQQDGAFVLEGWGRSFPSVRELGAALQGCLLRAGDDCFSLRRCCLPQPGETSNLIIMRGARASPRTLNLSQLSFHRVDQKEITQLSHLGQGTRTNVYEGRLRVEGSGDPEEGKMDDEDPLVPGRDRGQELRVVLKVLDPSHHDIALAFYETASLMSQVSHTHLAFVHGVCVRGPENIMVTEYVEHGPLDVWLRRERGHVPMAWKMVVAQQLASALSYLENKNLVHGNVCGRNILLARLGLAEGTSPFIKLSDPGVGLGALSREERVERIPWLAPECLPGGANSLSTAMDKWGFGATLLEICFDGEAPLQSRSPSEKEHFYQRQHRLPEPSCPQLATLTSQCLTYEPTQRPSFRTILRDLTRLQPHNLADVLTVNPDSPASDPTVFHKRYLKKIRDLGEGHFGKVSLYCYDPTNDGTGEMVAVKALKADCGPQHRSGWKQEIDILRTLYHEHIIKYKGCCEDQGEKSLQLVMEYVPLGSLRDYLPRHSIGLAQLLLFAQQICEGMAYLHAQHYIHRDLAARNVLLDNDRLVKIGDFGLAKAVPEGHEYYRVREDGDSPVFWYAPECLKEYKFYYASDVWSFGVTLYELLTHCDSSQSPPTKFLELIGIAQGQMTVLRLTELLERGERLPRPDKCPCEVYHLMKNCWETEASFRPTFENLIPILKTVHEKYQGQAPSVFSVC
T2 sequence (P23458 whole entry): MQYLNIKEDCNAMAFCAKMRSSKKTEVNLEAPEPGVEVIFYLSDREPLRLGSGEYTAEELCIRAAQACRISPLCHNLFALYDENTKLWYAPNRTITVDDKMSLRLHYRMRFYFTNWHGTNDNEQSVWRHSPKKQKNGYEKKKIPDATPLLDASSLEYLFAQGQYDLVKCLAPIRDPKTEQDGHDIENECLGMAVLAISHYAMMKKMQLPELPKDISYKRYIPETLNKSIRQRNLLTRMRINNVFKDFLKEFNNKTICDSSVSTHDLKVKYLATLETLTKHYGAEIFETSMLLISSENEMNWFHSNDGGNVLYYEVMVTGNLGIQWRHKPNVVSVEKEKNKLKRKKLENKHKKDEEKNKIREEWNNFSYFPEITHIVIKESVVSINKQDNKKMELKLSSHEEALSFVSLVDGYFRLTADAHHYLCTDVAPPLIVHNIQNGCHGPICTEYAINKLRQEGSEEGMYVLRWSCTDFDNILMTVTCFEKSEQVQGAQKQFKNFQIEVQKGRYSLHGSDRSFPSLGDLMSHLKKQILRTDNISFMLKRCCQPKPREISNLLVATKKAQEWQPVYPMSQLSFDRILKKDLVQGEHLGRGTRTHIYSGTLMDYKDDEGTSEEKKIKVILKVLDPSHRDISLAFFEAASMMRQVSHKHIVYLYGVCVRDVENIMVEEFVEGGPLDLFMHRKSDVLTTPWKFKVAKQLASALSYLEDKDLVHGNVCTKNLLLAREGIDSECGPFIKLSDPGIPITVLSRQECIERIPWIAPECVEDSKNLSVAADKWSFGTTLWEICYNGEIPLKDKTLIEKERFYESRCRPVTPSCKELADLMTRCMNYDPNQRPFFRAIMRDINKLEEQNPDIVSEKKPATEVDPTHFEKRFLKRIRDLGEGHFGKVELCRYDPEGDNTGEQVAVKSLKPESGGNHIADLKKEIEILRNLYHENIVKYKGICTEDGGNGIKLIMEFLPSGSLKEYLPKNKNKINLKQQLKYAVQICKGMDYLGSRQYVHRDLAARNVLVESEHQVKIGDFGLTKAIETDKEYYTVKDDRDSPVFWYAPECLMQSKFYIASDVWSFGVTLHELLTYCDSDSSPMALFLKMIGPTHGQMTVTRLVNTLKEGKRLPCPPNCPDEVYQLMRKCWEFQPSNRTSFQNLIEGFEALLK

Turning to `O=C1NCCN1c1ccc(-c2nn(-c3c(F)cccc3F)c3c(Cl)c[nH]c(=O)c23)cc1` [Example 225, 7-chloro-1-(2,6-difluorophenyl)-3-(4-(2-oxoimidazolidin-1-yl)phenyl)-1,5-dihydro-4H-pyrazolo[4,3-c]pyridin-4-one], the inhibition at 1 µM is 99% on Tyk2 and 58% at JAK1.

In the case of `Cc1ccccc1-c1nn(-c2csc(C(N)=O)c2)c2c(=O)[nH]cc(Br)c12` [Example 80, 4-(4-bromo-3-(2-methylphenyl)-7-oxo-6,7-dihydro-1H-pyrazolo[3,4-c]pyridin-1-yl)thiophene-2-carboxamide], the inhibition at 1 µM is 97% at Tyk2 and 82% on JAK1.

As for `N#Cc1c[nH]c(=O)c2c(-c3csc(C(=O)O)c3)cn(C3CCCC3)c12` [Example 77, 4-(7-cyano-1-cyclopentyl-4-oxo-4,5-dihydro-1H-pyrrolo[3,2-c]pyridin-3-yl)thiophene-2-carboxylic acid], the inhibition at 1 µM was 99% at Tyk2 and 96% at JAK1.

On to `CC(C)(C#N)c1ccc(-c2nn(-c3c(F)cccc3F)c3c(Cl)c[nH]c(=O)c23)cc1` [Example 187, 2-(4-(7-chloro-1-(2,6-difluorophenyl)-4-oxo-4,5-dihydro-1H-pyrazolo[4,3-c]pyridin-3-yl)phenyl)-2-methylpropanenitrile], for which the inhibition at 1 µM on Tyk2 worked out at 98%. Moreover, at JAK1 (setting [1]), the inhibition at 10 µM came out at 83%.

Regarding `O=C1OCCN1Cc1ccc(-c2nn(-c3c(F)cccc3F)c3c(Cl)c[nH]c(=O)c23)cc1` [Example 186, 7-chloro-1-(2,6-difluorophenyl)-3-(4-((2-oxo-1,3-oxazolidin-3-yl)methyl)phenyl)-1,5-dihydro-4H-pyrazolo[4,3-c]pyridin-4-one], the inhibition at 1 µM on Tyk2 came out at 99%. Moreover, the inhibition at 10 µM on JAK1 (setting [1]) worked out at 82%.

For `NC(=O)Cc1cccc(-c2nn(-c3c(F)cccc3F)c3cc[nH]c(=O)c23)c1` [Example 252, 2-(3-(1-(2,6-difluorophenyl)-4-oxo-4,5-dihydro-1H-pyrazolo[4,3-c]pyridin-3-yl)phenyl)acetamide], the inhibition at 1 µM stood at 98% on Tyk2 and 91% on JAK1.

Consider `NC(=O)c1cc(-c2nn(C3CCC(O)CC3)c3cc[nH]c(=O)c23)cs1` (centres unmarked) [Example 171, 4-(1-(4-hydroxycyclohexyl)-4-oxo-4,5-dihydro-1H-pyrazolo[4,3-c]pyridin-3-yl)thiophene-2-carboxamide], for which the inhibition at 1 µM at Tyk2 and at JAK1 was 100% each time.

Regarding `NC(=O)c1cc(-c2nn(C3CCC(=O)CC3)c3cc[nH]c(=O)c23)cs1` [Example 170, 4-(4-oxo-1-(4-oxocyclohexyl)-4,5-dihydro-1H-pyrazolo[4,3-c]pyridin-3-yl)thiophene-2-carboxamide], the inhibition at 1 µM on Tyk2 is 98%; at JAK1 it was 99%.

On to `O=C(NCCO)c1cc(-c2nn(C3CCCC3)c3cc[nH]c(=O)c23)cs1` [Example 157, 4-(1-cyclopentyl-4-oxo-4,5-dihydro-1H-pyrazolo[4,3-c]pyridin-3-yl)-N-(2-hydroxyethyl)thiophene-2-carboxamide], for which the figures for the inhibition at 1 µM at Tyk2 and at JAK1 were 99% and 100%, respectively.

With `O=c1[nH]ccc2c1c(-c1cn[nH]c1)nn2-c1c(F)cccc1F` [Example 151, 1-(2,6-difluorophenyl)-3-(1H-pyrazol-4-yl)-1,5-dihydro-4H-pyrazolo[4,3-c]pyridin-4-one], the inhibition at 1 µM on Tyk2 and on JAK1 was 98% in each case.

On to `N#Cc1c[nH]c(=O)c2c(-c3cccs3)cn(C3CCCC3)c12` [Example 134, 1-cyclopentyl-4-oxo-3-(2-thienyl)-4,5-dihydro-1H-pyrrolo[3,2-c]pyridine-7-carbonitrile], for which the inhibition at 1 µM at Tyk2 was determined as 97%; at JAK1 it was 78%.

Take `CNC(=O)c1cc(-c2cn(C3CCCC3)c3c(C#N)c[nH]c(=O)c23)cs1` [Example 108, 4-(7-cyano-1-cyclopentyl-4-oxo-4,5-dihydro-1H-pyrrolo[3,2-c]pyridin-3-yl)-N-methylthiophene-2-carboxamide]: the inhibition at 1 µM amounted to 100% on Tyk2 and 99% at JAK1.

On to `O=c1[nH]ccc2c1c(-c1ccc3c(c1)OCO3)nn2C1CCCC1` [Example 49, 3-(1,3-benzodioxol-5-yl)-1-cyclopentyl-1,5-dihydro-4H-pyrazolo[4,3-c]pyridin-4-one], for which the inhibition at 1 µM at Tyk2 came out at 89%; at JAK1, 85%.

As for `NS(=O)(=O)c1ccc(-c2nn(-c3ccccc3C(F)(F)F)c3cc[nH]c(=O)c23)cc1` [Example 212, 4-(4-oxo-1-(2-(trifluoromethyl)phenyl)-4,5-dihydro-1H-pyrazolo[4,3-c]pyridin-3-yl)benzenesulfonamide], the inhibition at 1 µM on Tyk2 was determined as 96%. The inhibition at 10 µM on JAK1 (setting [1]) stood at 99%.

Take `C[C@H]1CCC[C@H]1n1cc(-c2ccc(S(N)(=O)=O)cc2)c2c(=O)[nH]ccc21` (relative stereo) [Example 71, 4-(1-(cis-2-methylcyclopentyl)-4-oxo-4,5-dihydro-1H-pyrrolo[3,2-c]pyridin-3-yl)benzenesulfonamide]: the figures for the inhibition at 1 µM on Tyk2 and at JAK1 were 97% and 99%, respectively.

As to `COc1ccc(CNc2nn(C(C)(C)C)c3cc[nH]c(=O)c23)cc1` [Example 249, 1-tert-butyl-3-((4-methoxybenzyl)amino)-1,5-dihydro-4H-pyrazolo[4,3-c]pyridin-4-one], the inhibition at 10 µM on Tyk2 came to 25%; on JAK1 (test compound 10 μM), 30%.

Turning to `NC(=O)Cn1cc(-c2nn(-c3c(F)cccc3F)c3c(Br)c[nH]c(=O)c23)cn1` [Example 175, 2-(4-(7-bromo-1-(2,6-difluorophenyl)-4-oxo-4,5-dihydro-1H-pyrazolo[4,3-c]pyridin-3-yl)-1H-pyrazol-1-yl)acetamide], the figures for the inhibition at 1 µM on Tyk2 and at JAK1 were 100% and 86%, respectively.

As to `N#Cc1c[nH]c(=O)c2c(-c3ccccc3)cn(C3CCCC3)c12` [Example 103, 1-cyclopentyl-4-oxo-3-phenyl-4,5-dihydro-1H-pyrrolo[3,2-c]pyridine-7-carbonitrile], the inhibition at 1 µM on Tyk2 turned out to be 91%; at JAK1 it was 48%.

For `NC(=O)c1cccc(-c2nn(-c3c(F)cccc3F)c3c(Cl)c[nH]c(=O)c23)c1` [Example 254, 3-(7-chloro-1-(2,6-difluorophenyl)-4-oxo-4,5-dihydro-1H-pyrazolo[4,3-c]pyridin-3-yl)benzamide], the inhibition at 1 µM turned out to be 98% on Tyk2 and 65% on JAK1.

For the molecule `COc1ccccc1-c1nn(C2CCCC2)c2cc[nH]c(=O)c12` [Example 48, 1-cyclopentyl-3-(2-methoxyphenyl)-1,5-dihydro-4H-pyrazolo[4,3-c]pyridin-4-one], the figures for the inhibition at 1 µM at Tyk2 and on JAK1 were 7% and 3%, respectively.

Take `O=c1[nH]ccc2c1c(-c1ccccc1)cn2C1CCCC1` [Example 1, 1-cyclopentyl-3-phenyl-1,5-dihydro-4H-pyrrolo[3,2-c]pyridin-4-one]: the inhibition at 1 µM turned out to be 51% on Tyk2 and 40% at JAK1.

With `CNC(=O)c1ccc(F)c(-c2nn(-c3c(F)cccc3F)c3cc[nH]c(=O)c23)c1` [Example 272, 3-(1-(2,6-difluorophenyl)-4-oxo-4,5-dihydro-1H-pyrazolo[4,3-c]pyridin-3-yl)-4-fluoro-N-methylbenzamide], the inhibition at 10 µM on Tyk2 is 25%; at JAK1 (test compound 10 μM) it was 12%.

On to `N#Cc1c[nH]c(=O)c2c(-c3cnn(C4CCCC4)c3)cn(C3CCCC3)c12` [Example 137, 1-cyclopentyl-3-(1-cyclopentyl-1H-pyrazol-4-yl)-4-oxo-4,5-dihydro-1H-pyrrolo[3,2-c]pyridine-7-carbonitrile], for which the inhibition at 1 µM on Tyk2 was 98%; on JAK1, 77%.

`O=c1[nH]cc(Cl)c2c1c(-c1ccc(CN3CCOCC3)cc1)nn2-c1c(F)cccc1F` [Example 185, 7-chloro-1-(2,6-difluorophenyl)-3-(4-(morpholin-4-ylmethyl)phenyl)-1,5-dihydro-4H-pyrazolo[4,3-c]pyridin-4-one]: the inhibition at 1 µM at Tyk2 amounted to 99%. Further, on JAK1 (setting [1]), the inhibition at 10 µM is 72%.

For the molecule `COc1cc(N)cc(F)c1-n1cc(-c2csc(C(N)=O)c2)c2c(=O)[nH]ccc21` [Example 302, 4-(1-(4-amino-2-fluoro-6-methoxyphenyl)-4-oxo-4,5-dihydro-1H-pyrrolo[3,2-c]pyridin-3-yl)thiophene-2-carboxamide], the inhibition at 1 µM on Tyk2 came to 95%; at JAK1, 97%.

Take `NC(=O)c1cc(-c2nn(-c3ccccn3)c3cc[nH]c(=O)c23)cs1` [Example 247, 4-(4-oxo-1-(pyridin-2-yl)-4,5-dihydro-1H-pyrazolo[4,3-c]pyridin-3-yl)thiophene-2-carboxamide]: the inhibition at 1 µM was determined as 88% at Tyk2 and 86% at JAK1.

Regarding `NC(=O)c1cc(-c2nn(-c3c(F)cccc3F)c3c(Br)c[nH]c(=O)c23)cs1` [Example 144, 4-(7-bromo-1-(2,6-difluorophenyl)-4-oxo-4,5-dihydro-1H-pyrazolo[4,3-c]pyridin-3-yl)thiophene-2-carboxamide], the inhibition at 1 µM at Tyk2 was found to be 95%; on JAK1 it was 99%.

`O=c1[nH]ccc2c1c(C1=CCOCC1)nn2C1CCCC1` [Example 42, 1-cyclopentyl-3-(3,6-dihydro-2H-pyran-4-yl)-1,5-dihydro-4H-pyrazolo[4,3-c]pyridin-4-one]: the inhibition at 1 µM at Tyk2 was 51%; on JAK1, 53%.

These data come from patent publication US9371320B2, “Heterocyclic compound” (TAKEDA PHARMACEUTICAL COMPANY LIMITED, priority 2012, dated 2016).
